Measured values taken from US9328138B2 (priority 2011, dated 2016).

Key:
[1] = biological target: T1, HCV genotype 1b (BK) NS3 modified enzyme with a R155K mutation (Hepatitis C virus genotype 1b, UniProt P26663, R1181K); experiment: HCV NS3 protease time-resolved fluorescence (TRF) assay, genotype 1b R155K; assay type: biochemical; conditions: Ki 1b R155K
T1 construct: HCV genotype 1b (BK) NS3 modified enzyme
Summary of the method: (§1)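 NS3/NS4A protease was pre-incubated 10 min with inhibitor in 50 mM HEPES pH 7.5, 150 mM NaCl, 15% glycerol, 0.15% Triton X-100, 10 mM DTT, 0.1% PEG 8000. TRF peptide substrate (25 nM final) was hydrolysed for 6 h at room temperature. IC50 came from four-parameter fits.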

[2] = biological target: HCV NS3 protease genotype 3a (3A-1) (Hepatitis C virus genotype 3a, UniProt Q81258); experiment: HCV NS3 protease time-resolved fluorescence (TRF) assay, genotype 3a; assay type: biochemical; conditions: Ki 3a
Summary of the method: as §1

[3] = genotype 1b (BK) NS3 R155K, single value
[4] = first of two values printed in the cell (not explained)
[5] = second of two values printed in the cell (not explained)

Q: For `C=C[C@@H]1C[C@]1(NC(=O)[C@@H]1C[C@@H]2CN1C(=O)[C@H](C(C)(C)C)NC(=O)O[C@@H]1C[C@H]1CCCCCc1c(nc3cc(F)ccc3c1OCCCN1CCOCC1)O2)C(=O)NS(=O)(=O)C1(C)CC1` [Example 152, (1aR,5S,8S,10R,22aR)-5-tert-butyl-N-[(1R,2S)-2-ethenyl-1-{[(1-methylcyclopropyl)sulfonyl]carbamoyl}cyclopropyl]-14-fluoro-17-[3-(morpholin-4-yl)propoxy]-3,6-dioxo-1,1a,3,4,5,6,9, 10,18,19,20,21,22,22a-tetradecahydro-8H-7,10-methanocyclopropa[18,19] [1,10,3,6]dioxadiaza cyclononadecino[11,12-b]quinoline-8-carboxamide], which Ki [1, 3] is on record?
A: 0.25 nM

Q: And the Ki [2]?
A: 1.5 nM

Q: Which Ki [1, 4] does the source give for `C=C[C@@H]1C[C@]1(NC(=O)[C@@H]1C[C@@H]2CN1C(=O)[C@H](C(C)(C)C)NC(=O)O[C@@H]1C[C@H]1CCCCCc1c(nc3ccccc3c1OC1C3COCC1CN(CCOC)C3)O2)C(=O)NS(=O)(=O)C1(C)CC1` (stereo partly drawn) [Example 261, (1aR,5S,8S,10R,22aR)-5-tert-butyl-N-[(1R,2S)-2-ethenyl-1-{[(1-methylcyclopropyl)sulfonyl]carbamoyl}cyclopropyl]-17-{[7-(2-methoxyethyl)-3-oxa-7-azabicyclo[3.3.1]non-9-yl]oxy}-3,6-dioxo-1,1a,3,4,5,6,9,10,18,19,20,21,22,22a-tetradecahydro-8H-7,10-methanocyclopropa[18,19][1,10,3,6]dioxadiazacyclononadecino[11,12-b]quinoline-8-carboxamide] here?
A: 0.026 nM

Q: What about the Ki [1, 5] of the same molecule?
A: 0.155 nM

Q: And the Ki [2]?
A: 3.45 nM

Q: How did the Ki [1, 4] turn out when `C=C[C@@H]1C[C@]1(NC(=O)[C@@H]1C[C@@H]2CN1C(=O)[C@H](C1Cc3ccccc3C1)NC(=O)O[C@@H]1C[C@H]1CCCCCc1c(nc3ccccc3c1OCCCN(C)C)O2)C(=O)NS(=O)(=O)C1(C)CC1` [Example 233, (1aR,5S,8S,10R,22aR)-5-(2,3-dihydro-1H-inden-2-yl)-17-[3-(dimethylamino)propoxy]-N-[(1R,2S)-2-ethenyl-1-{[(1-methylcyclopropyl)sulfonyl]carbamoyl}cyclopropyl]-3,6-dioxo-1,1a,3,4,5,6,9,10,18,19,20,21,22,22a-tetradecahydro-8H-7,10-methanocyclopropa[18,19][1,10,3,6]dioxadiazacyclononadecino[11,12-b]quinoline-8-carboxamide] was run?
A: 0.015 nM

Q: What about the Ki [1, 5] of the same molecule?
A: 0.08 nM

Q: And the Ki [2]?
A: 4.2 nM

Q: For `C=C[C@@H]1CC1(NC(=O)[C@@H]1C[C@@H]2CN1C(=O)[C@H](C(C)(C)C)NC(=O)O[C@@H]1C[C@H]1CCCCCc1c(nc3ccccc3c1CN1CCOCC1)O2)C(=O)NS(=O)(=O)C1(C)CC1` (stereo partly drawn) [Example 248, potassium {[(1R,2S)-1-({[(1aR,5S,8S,10R,22aR)-5-tert-butyl-17-(morpholin-4-ylmethyl)-3,6-dioxo-1,1a,3,4,5,6,9,10,18,19,20,21,22,22a-tetradecahydro-8H-7,10-methanocyclopropa[18,19][1,10,3,6]dioxadiazacyclononadecino[11,12-b]quinolin-8-yl]carbonyl}amino)-2-ethenylcyclopropyl]carbonyl}[(1-methylcyclopropyl)sulfonyl]azanide], which Ki [1, 4] is on record?
A: 0.1 nM

Q: And the Ki [1, 5]?
A: 0.348 nM

Q: And the Ki [2]?
A: 40.2 nM

Q: Which results are given for `C=C[C@@H]1C[C@]1(NC(=O)[C@@H]1C[C@@H]2CN1C(=O)[C@H](C(C)(C)C)NC(=O)O[C@@H]1C[C@H]1CCCCCc1c(nc3ccccc3c1OC1CCN(CCOC)CC1)O2)C(=O)NS(=O)(=O)C1(C)CC1` [Example 225, (1aR,5S,8S,10R,22aR)-5-tert-butyl-N-[(1R,2S)-2-ethenyl-1-{[(1-methylcyclopropyl)sulfonyl]carbamoyl}cyclopropyl]-17-{[1-(2-methoxyethyl)piperidin-4-yl]oxy}-3,6-dioxo-1,1a,3,4,5,6,9,10,18,19,20,21,22,22a-tetradecahydro-8H-7,10-methanocyclopropa[18,19][1,10,3,6]dioxadiazacyclononadecino[11,12-b]quinoline-8-carboxamide]?
A: Ki [1, 3]: 0.079 nM; Ki [2]: 0.6 nM
